This is an account of results in patent US7901893B2, “NPC1L1 (NPC3) and methods of identifying ligands thereof” (Merck Sharp & Dohme Corp., priority 2004, dated 2011).

The test system of assay [1] is membrane preparations from cells expressing NPC1L1. Kind of assay: Preliminary binding studies with HEK-293 membrane preparations. Here is the method: Transient expression of NPC1L1. Plasmid pCR3.1 expressing rat NPC1L1 (Genbank AY437867) or human NPC1L1 (Genbank AY437865) were prepared using standard molecular biology protocols. HEK-293 cells (ATCC) were seeded at 10×10^6 cells per T-225 flask (Corning) in DMEM containing 10% fetal calf serum, 4.5 g/L D-glucose and L-glutamine, 18 hours prior to transfection. They were transiently transfected with 25 μg of DNA using Fugene transfection reagent (Roche Biochemical) at a ratio of 6:1 Fugene:DNA. Following transfection, the cells were incubated at 37° C. and 5% CO2 for 48 hours, and then harvested using PBS based cell dissociation buffer (Gibco), pelleted at 500×g, snap frozen on dry ice, and stored at −80° C.
Membrane preparation from HEK-293 cells. Membranes were prepared by resuspending the frozen cell pellets in ten volumes of 20 mM HEPES/Tris buffer at pH 7.40 containing 8% sucrose, and sonicating the suspensions with a probe sonicator on ice until most of the cells were lysed. […]
Cell lysates from HEK-293 cells expressing NPC1L1 (Lanes 1 and 3 of Panel 1 FIG. 13) and wild-type cells (Lanes 2 and 4 of Panel 1 FIG. 13) were analyzed by gel electrophoresis and Western blot with an anti-NPC1L1 antibody A1801. […]

The target in another assay is T1, mouse NPC1L1 (Mus musculus, UniProt Q6T3U4).
T1 construct: expressed in transfected cells; pCDNA3)
Kind of assay: Effect of ezetimibe on cholesterol uptake, mouse NPC1L1 transfected CHO cells. The assay is classed as cell-based. To be noted: EZ (10 μM), mNPC1L1(C7). Here is the method: The effect of ezetimibe on the ability of CHO cells stably transfected with mouse or rat NPC1L1 or mouse SR-B1 to take up ^3H-labeled cholesterol was evaluated in pulse-chase experiments. One cDNA clone of mouse NPC1L1 (C7) and three clones of rat NPC1L1 (C7, C17 and C21) were evaluated. The ability of CHO cells stably transfected with mouse SR-B1, mouse NPC1L1 and rat NPC1L1 to take up labeled cholesterol, in the absence of ezetimibe, was also evaluated in the pulse-chase experiments. Data generated in these experiments are set forth, below, in Tables 4 and 5. Additionally, the quantity of total cholesterol taken up by transfected and untransfected CHO cells in the presence of four different unlabeled cholesterol concentrations was also evaluated.
Starve. The maintenance media (F12 HAMS, 1% Pen/Strep, 10% FCS) was removed and the cells were rinsed with serum-free HAMS media. The serum-free media was then replaced with 1 mL “starve” media (F12 HAMS, Pen/Strep, 5% lipoprotein deficient serum (LPDS). The cells were then starved overnight.
Pre-Incubation/pre-dose. Media was removed from all plates and replaced with fresh starve media and preincubated for 30 minutes. Half of the wells received media containing ezetimibe (stock soln in EtOH; final conc.=10 μM).
^3H-Cholesterol Pulse. The following was added directly to each well: • 0.5 μCi ^3H-cholesterol (˜1.1×10^6 dpm/well) in 50 μl of a mixed bile salt micelle • 4.8 mM sodium taurocholate (2.581 mg/mL) • 0.6 mM sodium oleate (0.183 mg/mL) • 0.25 mM cholesterol (0.1 mg/mL) • Dispersed in “starve” media by ultrasonic vibration • Final media cholesterol concentration=5 μg/mL
Labeled cholesterol pulse time points were 4, 12, 24 minutes and 4 hours. Triplicate wells were prepared for each treatment.
Wash. At designated times, media was aspirated and cells were washed once with Hobbs Buffer A (50 mM Tris, 0.9% NaCl, 0.2% bovine serum albumin (BSA), pH 7.4) and once with Hobbs Buffer B (50 mM Tris, 0.9% NaCl, pH 7.4 (no BSA)) at 37° C.
A. 4, 12, 24 minute time points: Cells were digested overnight with 0.2N NaOH, 2 mL/well, room temperature. One 1.5 mL aliquot was removed from each well, neutralized & counted for radioactivity by scintillation counting.
B. 4 hour time point: The digested cells were analyzed by thin-layer chromatography to determine the content of cholesterol ester in the cells.
Extracts were spotted onto TLC plates and run for 30 minutes in 2 ml hexane:isopropanol (3:2) mobile phase for 30 minutes, followed by a second run in 1 ml hexane:isopropanol (3:2) mobile phase for 15 minutes.
C. Protein determination of cell extracts. Plates containing a sample of the cell extracts were placed on orbital shaker at 120 rpm for indicated times and then extracts are pooled into 12×75 tubes. Plates were dried and NaOH (2 ml/well) added. The protein content of the samples were then determined. Two additional 50 μl aliquots from all wells were assayed for total protein by the Pierce micro BCA method. The quantity of labeled cholesterol observed in the cells was normalized to the quantity of protein in the cells.

The subject of a further assay is cholesterol absorption. To be noted: rat; cited from earlier work.
Assay [2] concerns intestinal cholesterol absorption. Kind of assay: Cholesterol absorption in mice, dual fecal isotope ratio method. The assay is classed as in vivo, mouse. The protocol: Cholesterol absorption in the mice was determined by the dual fecal isotope ratio method as described by Altmann et al. (Biochim. Biophys. Acta. 1580(1): 77-93 (2002)). Mice (n—4-6/group) were fed a standard rodent chow diet and in some groups treated daily with a maximally effective dose of ezetimibe (10 mg/kg). Mice were gavaged with ^14C-cholesterol (1 μCi, 0.1 mg unlabeled cholesterol) and ^3H-sitostanol (2 μCi) in 0.1 ml corn oil. Feces were collected for 2 days and fecal ^14C-cholesterol and ^3H-sitostanol levels were determined by combustion in a Packard Oxidizer. The fraction of cholesterol absorbed, as evaluated by the fecal dual isotope technique, was similar in wild type (+/+) and heterozygous mice (+/−) fed a chow diet (heterozygous mice absorbed 46±5% and age matched wild type mice absorbed 51±3% of the dose of ^14C-cholesterol). The NPC1L1 knockout mice (−/−) absorbed 15.6±0.4% of the ^14C-cholesterol, which was similar to the wild type mice treated with a maximally effective dose of ezetimibe (16.1±0.3%), and reduced by 69% compared to wild type mice (p<0.001). In NPC1L1 knockout treated with ezetimibe at 10 mg/kg/day, cholesterol absorption was similar to that seen in the untreated knockout mice (16.2±0.6% compared to 15.6%±0.4%, respectively). […]

For `O=C(O)[C@H]1O[C@@H](Oc2ccc([C@@H]3[C@@H](CC[C@H](O)c4ccc(F)cc4)C(=O)N3c3ccc(F)cc3)cc2)[C@H](O)[C@@H](O)[C@@H]1O` [Compound 1, Ezetimibe glucuronide], in assay [1], the “binding to membrane preparations from cells expressing NPC1L1” value is given as “specific binding” and the “binding to membranes from mock transfected cells” value was “no specific binding”.
Regarding `O=C1[C@H](CC[C@H](O)c2ccc(F)cc2)[C@@H](c2ccc(O)cc2)N1c1ccc(F)cc1` [ezetimibe], on mouse NPC1L1 (4 Hour Pulse), the “Cholesteryl Ester, dpm ± sem” value amounted to 453 ± 118 dpm; the “Cholesteryl Ester, dpm/mg protein ± sem” value turned out to be 3057 ± 776 dpm/mg protein; the “Free Cholesterol, dpm ± sem” value came to 77516 ± 1910 dpm; the “Free Cholesterol, dpm/mg protein ± sem” value turned out to be 523803 ± 10386 dpm/mg protein. Further, on mouse NPC1L1 (4 Min Pulse), the “Total Cholesterol, dpm ± sem” value is listed as 4569 ± 222 dpm and the “Total Cholesterol, dpm/mg protein ± sem” value came out at 30916 ± 1137 dpm/mg protein. Further, on mouse NPC1L1 (12 Min Pulse), the “Total Cholesterol, dpm ± sem” value is 6120 ± 755 dpm and the “Total Cholesterol, dpm/mg protein ± sem” value is listed as 41712 ± 4054 dpm/mg protein. On mouse NPC1L1 (24 Min Pulse), the “Total Cholesterol, dpm ± sem” value amounted to 9749 ± 482 dpm and the “Total Cholesterol, dpm/mg protein ± sem” value amounted to 74041 ± 3670 dpm/mg protein. In the assay on cholesterol absorption, the “potency (ED50) in vivo” value was 0.03 mpk. The “fraction of ^14C-cholesterol absorbed” value in assay [2] (NPC1L1 knockout mice, ezetimibe 10 mg/kg/day) turned out to be 16.2±0.6%. For the same compound, the “fraction of ^14C-cholesterol absorbed” value in assay [2] (wild type mice, ezetimibe 10 mg/kg daily) is listed as 16.1±0.3%.
